Results from ChEMBL document CHEMBL5518181, “Studies of antibacterial activity (in vitro and in vivo) and mode of action for des-acyl tridecaptins (DATs)” (Eur J Med Chem, 2024).
≈ marks a conversion by molar mass, not a printed value. Calls of active or inactive are those of the source. No cut-off for these calls is given here.

Columns and labels:
[1] = AUClast in Swiss mouse liver at 10 mg/kg, iv administered as single bolus dose and measured upto 24 hrs by LC-MS/MS analysis; format: ADME, organism-based
Cell membrane = assay: Induction of membrane permeabilization in Klebsiella pneumoniae ATCC 13883 at 32 to 64 ug/ml measured after 30 mins by Sytox Green labelling based microscopic analysis; format: cell membranes; settings: dose 32-64 µg/ml
Klebsiella pneumoniae [2] = assay: Antibacterial activity against Klebsiella pneumoniae ATCC 13883 assessed as inhibition of bacterial growth incubated for 18 hrs in presence of 5 mM KCl; format: functional, organism-based
[3] = Cmax in Swiss mouse kidney at 10 mg/kg, iv administered as single bolus dose and measured upto 24 hrs by LC-MS/MS analysis; format: ADME, organism-based
[4] = Half life in Swiss mouse at 10 mg/kg, iv administered as single bolus dose and measured upto 24 hrs by LC-MS/MS analysis; format: ADME, organism-based; settings: in vivo
[5] = Lipophilicity, logD of compound at pH 7.4; format: physicochemical; settings: buffer
[6] = Toxicity in naive mouse assessed as animal death at >15 mg/kg, iv administered as single dose every 4 hrs for 24 hrs; format: organism-based; settings: in vivo
Klebsiella pneumoniae [7] = assay: Antibacterial activity against Klebsiella pneumoniae ATCC 13883 assessed as inhibition of bacterial growth incubated for 18 hrs in presence of 2 mM MgCl2; format: functional, organism-based
[8] = Chemical stability of compound in benzylamine; format: physicochemical
Salmonella typhimurium = assay: Antibacterial activity against Salmonella typhimurium ATCC 13311 assessed as inhibition of bacterial growth incubated for 18 hrs; format: functional, Salmonella enterica subsp. enterica serovar Typhimurium; settings: Salmonella enterica, read-out: MIC100
[9] = Cmax in Swiss mouse lung at 10 mg/kg, iv administered as single bolus dose and measured upto 24 hrs by LC-MS/MS analysis; format: ADME, organism-based
Proteus mirabilis = assay: Antibacterial activity against Proteus mirabilis ATCC 25933 assessed as inhibition of bacterial growth incubated for 18 hrs; format: functional; settings: read-out: MIC100
Escherichia coli [10] = assay: Antibacterial activity against Escherichia coli Swiss 9 harboring mcr-1 gene assessed as inhibition of bacterial growth incubated for 18 hrs; format: functional; settings: read-out: MIC100
Escherichia coli [11] = assay: Antibacterial activity against Escherichia coli ATCC 25922 assessed as inhibition of bacterial growth incubated for 18 hrs in presence of 2 mM CaCl2; format: functional, organism-based
[12] = Hydrophobicity of compound assessed as %MeCN at peak elution by RP-HPLC analysis; format: physicochemical
Klebsiella pneumoniae [13] = assay: Antibacterial activity against Klebsiella pneumoniae panel (100 strains) assessed as inhibition of bacterial growth; format: functional
Klebsiella pneumoniae [14] = assay: Antibacterial activity against Klebsiella pneumoniae ATCC 43816 assessed as inhibition of bacterial growth incubated for 18 hrs; format: functional; settings: read-out: MIC100
Klebsiella pneumoniae [15] = assay: Antibacterial activity against wild-type Klebsiella pneumoniae ATCC 13883 assessed as inhibition of bacterial growth incubated for 18 hrs; format: functional; settings: read-out: MIC100
Klebsiella pneumoniae [16] = assay: Antibacterial activity against wild-type Klebsiella pneumoniae ATCC 13883 assessed as inhibition of bacterial growth incubated for 18 hrs in presence of 50% heat inactivated human serum; format: functional; settings: read-out: MIC100
Escherichia coli [17] = assay: Antibacterial activity against Escherichia coli ATCC 25922 assessed as inhibition of bacterial growth incubated for 18 hrs in presence of 2 mM MgCl2; format: functional, organism-based
[18] = Observed clearance in Swiss mouse at 10 mg/kg, iv administered as single bolus dose and measured upto 24 hrs by LC-MS/MS analysis; format: ADME, organism-based; settings: in vivo
Pseudomonas aeruginosa = assay: Antibacterial activity against efflux-deficient Pseudomonas aeruginosa PAO750 assessed as inhibition of bacterial growth incubated for 18 hrs; format: functional; settings: read-out: MIC100
Escherichia coli [19] = assay: Antibacterial activity against Escherichia coli ATCC 25922 assessed as inhibition of bacterial growth incubated for 18 hrs in presence of 25 mM bicarbonate; format: functional, organism-based
[20] = Chemical stability of compound at pH 7.4; format: physicochemical; settings: buffer

CC[C@H](C)[C@@H](NC(=O)[C@@H](NC(=O)[C@H](CCC(=O)O)NC(=O)[C@H](Cc1ccccc1)NC(=O)[C@@H](CCN)NC(=O)[C@H](CCN)NC(=O)[C@H](CO)NC(=O)[C@@H](Cc1c[nH]c2ccccc12)NC(=O)[C@@H](CO)NC(=O)CNC(=O)[C@@H](CCN)NC(=O)[C@H](NC(=O)[C@H](C)N)C(C)C)C(C)C)C(=O)N[C@@H](C)C(=O)O
AUC(0-t) at 24 h [1]: 3020 ng·h/mL | Activity (Cell membrane): Active | Activity (Klebsiella pneumoniae [2]): Active | Cmax [3]: 152 µg/mL | half-life [4]: 22.8 min | logD [5]: 1.36 | Activity [6]: Toxic | Activity (Klebsiella pneumoniae [7]): Active | Stability [8]: Stable | MIC (Salmonella typhimurium): 16 µg/mL (≈ 10.9 µM) | Cmax [9]: 17 µg/mL | MIC (Proteus mirabilis): > 32 µg/mL | MIC (Escherichia coli [10]): 8 µg/mL (≈ 5.46 µM) | Activity (Escherichia coli [11]): Active | MeCN percentage at peak elution [12]: 40.3% | MIC50 (Klebsiella pneumoniae [13]): 8 µg/mL (≈ 5.46 µM) | MIC90 (Klebsiella pneumoniae [13]): 32 µg/mL (≈ 21.8 µM) | MIC (Klebsiella pneumoniae [14]): 8 µg/mL (≈ 5.46 µM) | MIC (Klebsiella pneumoniae [15]): 4 µg/mL (≈ 2.73 µM) | MIC (Klebsiella pneumoniae [16]): 1 µg/mL | Activity (Escherichia coli [17]): Active | clearance [18]: 2 mL/min/kg | MIC (Pseudomonas aeruginosa): 32 µg/mL (≈ 21.8 µM) | Activity (Escherichia coli [19]): Active | Stability [20]: Stable
